Measured values taken from patent publication US12268676B2, “Antiviral applications of picolinic acid and its derivatives” (INDIAN INSTITUTE OF SCIENCE, priority 2021, dated 2025).
Structures can show the parent of a compound that is named as a salt.

What was measured:
[1] = test system: pseudotyped SARS CoV-2 particles; assay: microbe, parasite or virus in culture; assay type: cell-based; conditions: Severe acute respiratory syndrome coronavirus 2; read-out: inhibition of pseudotyped SARS CoV-2 virus entry
[2] = test system: R18 labelled PR8 WT virus; assay: Influenza virus membrane fusion assay (R18 fluorescence); assay type: cell-based, Influenza A virus; conditions: 90 min
SARS-CoV-2 = assay: SARS CoV-2 infection studies in the hamster model; assay type: in vivo, Syrian golden hamsters; conditions: CQ dosed therapeutically

CN(C)C(=O)COC(=O)Cc1ccc(OC(=O)c2ccc(NC(=N)N)cc2)cc1 [CM, Camostat mesylate, reference compound]
inhibition at 500 µM [1]: 60%

CCN(CC)CCCC(C)Nc1ccnc2cc(Cl)ccc12 (centres unmarked) [CQ, Chloroquine, reference compound]
virus-entry associated increase in fluorescence intensity ([2]; 10 μM CQ): able to inhibit
lung viral loads reduced by (SARS-CoV-2): ~1 log
inhibition at 10 µM [1]: 90%

Cl.N [NH4Cl, ammonium chloride]
virus-entry associated increase in fluorescence intensity ([2]; 10 μM NH4Cl): able to inhibit
